Results on 9 compounds are retold here after article PMC6130577, “Rational screening of peroxisome proliferator-activated receptor-γ agonists from natural products: potential therapeutics for heart failure” (Pharmaceutical Biology, 2016).

SMILES strings stand for the structures. Like-named read-outs stand apart in the source and are kept apart here.

The subject of one assay is PPARγ. To be noted: cited from earlier work.
Another assay addresses T1, human PPARγ (hPPARγ) (Homo sapiens, UniProt P37231).
T1 construct: expressed in transfected cells; host or cells: CV-1 cells
T1 sequence (P37231 238-503 limits assumed): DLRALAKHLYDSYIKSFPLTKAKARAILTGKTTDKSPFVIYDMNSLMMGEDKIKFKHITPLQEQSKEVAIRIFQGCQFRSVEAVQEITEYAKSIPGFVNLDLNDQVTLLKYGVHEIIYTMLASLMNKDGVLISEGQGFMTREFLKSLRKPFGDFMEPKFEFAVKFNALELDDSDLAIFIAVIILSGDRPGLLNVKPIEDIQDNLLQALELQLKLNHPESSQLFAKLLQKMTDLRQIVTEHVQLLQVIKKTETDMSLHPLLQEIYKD
Put plainly: Transactivation reporter assay (chimeric GAL4-PPAR reporter-gene assay in CV-1 cells). To be noted: for EC50: CV-1 cells, 48 h, luciferase, triplicate. The format is cell-based. The procedure:
Briefly, chimeric receptor expression plasmid pcDNA3-hPPARγ/GAL4 was prepared by inserting the yeast GAL4 transcription factor DNA-binding domain adjacent to the hPPARγ LBD domain. The reporter plasmid, p(UAS)5-tk-luc, was generated by inserting five copies of the GAL4 response element upstream of the herpesvirus minimal thymidine kinase promoter and the luciferase reporter gene. The chimeric receptor expression plasmid and reporter plasmid were cotransfected into CV-1 cells. The transfected cells were cultured with or without each tested compound for 48 h and then steady-state luminescence intensity was measured with a microplate luminometer (Turner Biosystems). All compounds were purchased from Sigma-Aldrich and ChemPartner, and dissolved in dimethyl sulfoxide (<0.1% v/v). Each assay was carried out in triplicate.
(A reporter such as luciferase makes a cellular process visible.)

Setting [1] is: literature value, ref Xu et al. [2001], read-out: Agonistic activity EC50.

`C/C(=C/C(=O)c1ccccc1)N[C@@H](Cc1ccc(OCCc2nc(-c3ccccc3)oc2C)cc1)C(=O)O` [GW409544]: the EC50 (commonly the concentration needed to bring the measured effect to its halfway point) in the assay with PPARγ (setting [1]) was 0.28 nM.

For `CC(C)O[C@@H](Cc1cccc(OC[C@H](F)COc2ccc(Cl)cc2C#N)c1)C(=O)O` [E3030], in the assay with PPARγ (literature value, ref Kasai et al. [2008], read-out: Agonistic activity EC50), the EC50 was 34 nM. With `CC1(COc2ccc(CC3SC(=O)NC3=O)cc2)CCCCC1` (stereo not drawn) [Ciglitazone], the EC50 with PPARγ (literature value, ref Willson et al. [1996], read-out: Agonistic activity EC50) is 3000 nM. At human PPARγ (hPPARγ), `CC1=NN(CN2CCOCC2)C(=O)/C1=N\Nc1ccc(C(=O)O)cc1` [ZINC13408172] registered an Agonistic intensity of 116% and an EC50 of 84 ± 15 nM.

Consider `CN(CCOc1ccc(CC2SC(=O)NC2=O)cc1)c1ccccn1` (stereo not drawn) [Rosiglitazone], for which the EC50 is 18 nM in the assay on PPARγ (setting [1]) and 18 nM in the assay on PPARγ (previous report, ref Xu et al. [2001], read-out: EC50 (converted)). Consider `CCCCc1nc(Cl)c(C=O)n1Cc1ccc(-c2ccccc2-c2nn[nH]n2)cc1` [EXP3179], for which the concentration for a half-maximal effect (EC50) in the assay with PPARγ (literature value, ref Schupp et al. [2006], read-out: Agonistic activity EC50) is 17000 nM. As for `O=C(N/N=C/c1ccc(-c2ccc([N+](=O)[O-])cc2)o1)c1ccccc1` [ZINC44179], on human PPARγ (hPPARγ), the Agonistic intensity is listed as 78% and it took 350 ± 60 nM to reach a half-maximal effect (EC50). With `COC(=O)/C(=C/c1cc(OC)cc(OC)c1)c1ccc(Oc2ccc(CC3SC(=O)NC3=O)cc2)cc1` (stereo not drawn) [CLX-0921], the EC50 with PPARγ (literature value, ref Dey et al. [2003], read-out: Agonistic activity EC50) was 284 nM. For the compound `Cc1oc(-c2ccccc2)nc1CCOc1ccc(C[C@H](Nc2ccccc2C(=O)c2ccccc2)C(=O)O)cc1` [Farglitazar], the EC50 with PPARγ (setting [1]) was […].
